In patent publication US7285567B2, “Halogenated benzamide derivatives” (Romark Laboratories, L.C., priority 2005, dated 2007):
Read-outs that look alike come from different tables or passages of the source.

Experiments:
Format in all cases: cell-based
[1] = test system: Human Rhinovirus Type 39 (HRV-39); experiment: Multiple cycle CPE inhibition assay on OH-I Hela cell monolayers; settings: Rhinovirus A, HRV39, HRV-39, OH-Hela, 2% McCoys + Hepes Buffer
Protocol: (§1) EC50 (μg/mL) values for 2-(acetolyloxy)-3-methyl-N-(5-bromo-2-thiazolyl)benzamide (RM4803), 2-(acetolyloxy)-3-methyl-N-(5-chloro-2-thiazolyl)benzamide (RM4804), and 2-(acetolyloxy)-3-methoxy-N-(5-bromo-2-thiazolyl)benzamide (RM4806), on Human Rhinovirus Type 39 (HRV-39), and H3N2 influenza virus, type A, using a multiple cycle CPE inhibition assay on OH-I Hela and Madin Darby Canine Kidney (MDCK) cell monolayers, respectively, were measured by microscopic and spectrophotometric methods. Pirodavir and Oseltamivir were included as positive controls.

[2] = test system: Paramyxovirus: Sendai virus; experiment: microbe, parasite or virus in culture; settings: Sendai virus, 37RC cell culture (Table 1)
[3] = test system: H3N2 influenza virus, type A; experiment: Multiple cycle CPE inhibition assay on MDCK cell monolayers; settings: 0% EMEM + Hepes + Trypsin
Protocol: as §1

[4] = microscopic reading, read-out: EC50, Microscopic
[5] = spectrophotometric reading, read-out: EC50, Spectrophotometer

With `CC(=O)Oc1c(C)cccc1C(=O)Nc1ncc(Br)s1` [RM-4803, 2-(acetolyloxy)-3-methyl-N-(5-bromo-2-thiazolyl)benzamide] the EC50 [1, 4] was 0.06 µg/mL, the EC50 [1, 5] was 0.03 µg/mL and the EC50 ([2]; Respirovirus muris) was 1100 nM. The “SI (selectivity index) = CC50/EC50” value ([2]; CC50 by MTT) was greater than 125, the EC50 [3, 4] was 0.45 µg/mL and the EC50 [3, 5] was 0.18 µg/mL.
